Source: article PMC9130746, “In Vitro Activity of Peptide Antibiotics in Combination With Other Antimicrobials on Extensively Drug-Resistant Acinetobacter baumannii in the Planktonic and Biofilm Cell” (Frontiers in Pharmacology, 2022)
In brackets after ≈: the same amount, converted by molar mass. Like-named read-outs stand apart in the source and are kept apart here.

Tested on: extensively drug-resistant A. baumannii clinical isolates (planktonic cell)
Assay: microbe, parasite or virus in culture
Format: cell-based, Acinetobacter baumannii
Text: Nine XDRAB strains were isolated from clinical specimens such as the septum, urine, or respiratory lavage fluid of patients from the respiratory intensive care unit, intensive care unit, the cardiothoracic surgery department, and the neurology department at the First Affiliated Hospital of Chengdu Medical College during the period from 2018 to 2020 (Chengdu, Sichuan, China). In addition, A. baumannii ATCC 19606, Staphylococcus aureus ATCC 29213, and Escherichia coli ATCC 25922 were used as quality control strains in antimicrobial susceptibility testing (AST) and obtained from the American Type Culture Collection (ATCC, Manassas, VA, United States).
The minimum inhibitory concentrations (MICs) were determined by the broth microdilution method for the antibacterial agents and peptide antibiotics for A. baumannii based on the guidelines provided by the Clinical and Laboratory Standards Institute (CLSI) ([Humphries et al., 2021]). Briefly, bacterial cells were inoculated in Luria–Bertani agar medium at 37°C for 16–20 h, and then resuspended in saline (0.9% sodium chloride) to adjust the bacterial content to reach the 0.5 McFarland turbidity standard, followed by a 20-fold dilution. Antimicrobial solutions were prepared according to the CLSI ([Humphries et al., 2021]). Finally, 180 μl CAMHB, 10 µl corresponding antimicrobials, and 10 µl bacterial resuspension were added into 96-well plate (NEST TC, 701001, www.cell-nest.com). The value of OD600 was measured after incubating at 37°C for 16–20 h.

[1] = Acinetobacter baumannii, isolate AB1, planktonic, broth microdilution, CAMHB, 37°C 16–20 h, OD600, read-out: MIC
[2] = Acinetobacter baumannii, isolate AB2, planktonic, broth microdilution, CAMHB, 37°C 16–20 h, OD600, read-out: MIC
[3] = Acinetobacter baumannii, isolate AB3, planktonic, broth microdilution, CAMHB, 37°C 16–20 h, OD600, read-out: MIC
[4] = Acinetobacter baumannii, isolate AB4, planktonic, broth microdilution, CAMHB, 37°C 16–20 h, OD600, read-out: MIC
[5] = Acinetobacter baumannii, isolate AB5, planktonic, broth microdilution, CAMHB, 37°C 16–20 h, OD600, read-out: MIC
[6] = Acinetobacter baumannii, isolate AB6, planktonic, broth microdilution, CAMHB, 37°C 16–20 h, OD600, read-out: MIC
[7] = Acinetobacter baumannii, isolate AB7, planktonic, broth microdilution, CAMHB, 37°C 16–20 h, OD600, read-out: MIC
[8] = Acinetobacter baumannii, isolate AB8, planktonic, broth microdilution, CAMHB, 37°C 16–20 h, OD600, read-out: MIC
[9] = Acinetobacter baumannii, isolate AB9, planktonic, broth microdilution, CAMHB, 37°C 16–20 h, OD600, read-out: MIC
[10] = isolate AB1, planktonic, broth microdilution, CAMHB, 37°C 16–20 h, OD600
[11] = isolate AB2, planktonic, broth microdilution, CAMHB, 37°C 16–20 h, OD600
[12] = isolate AB3, planktonic, broth microdilution, CAMHB, 37°C 16–20 h, OD600
[13] = isolate AB4, planktonic, broth microdilution, CAMHB, 37°C 16–20 h, OD600
[14] = isolate AB5, planktonic, broth microdilution, CAMHB, 37°C 16–20 h, OD600
[15] = isolate AB6, planktonic, broth microdilution, CAMHB, 37°C 16–20 h, OD600
[16] = isolate AB7, planktonic, broth microdilution, CAMHB, 37°C 16–20 h, OD600
[17] = isolate AB8, planktonic, broth microdilution, CAMHB, 37°C 16–20 h, OD600

SMILES | MIC [1] [µg/mL] | MIC [2] [µg/mL] | MIC [3] [µg/mL] | MIC [4] [µg/mL] | MIC [5] [µg/mL] | MIC [6] [µg/mL] | MIC [7] [µg/mL] | MIC [8] [µg/mL] | MIC [9] [µg/mL] | MIC (Acinetobacter baumannii) [µg/mL] | MIC [10] [µg/mL] | MIC [11] [µg/mL] | MIC [12] [µg/mL] | MIC [13] [µg/mL] | MIC [14] [µg/mL] | MIC [15] [µg/mL] | MIC [16] [µg/mL] | MIC [17] [µg/mL]
NCC[C@H](O)C(=O)N[C@@H]1C[C@H](N)[C@@H](O[C@H]2O[C@H](CN)[C@@H](O)[C@H](O)[C@H]2O)[C@H](O)[C@H]1O[C@H]1O[C@H](CO)[C@@H](O)[C@H](N)[C@H]1O [Amikacin, amikacin] | > 1020 | > 1020 | > 1020 | > 1020 | > 1020 | > 1020 | > 1020 | > 1020 | > 1020 | – | – | – | – | – | – | – | – | –
CO/N=C(\C(=O)N[C@@H]1C(=O)N2C(C(=O)O)=C(COC(C)=O)CS[C@H]12)c1csc(N)n1 [Cefotaxime, cefotaxime] | – | – | – | – | – | – | – | – | – | 256 (≈ 562 µM) | 256 (≈ 562 µM) | 256 (≈ 562 µM) | 256 (≈ 562 µM) | 256 (≈ 562 µM) | 256 (≈ 562 µM) | 256 (≈ 562 µM) | 256 (≈ 562 µM) | 256 (≈ 562 µM)
CC(C)(O/N=C(\C(=O)N[C@@H]1C(=O)N2C(C(=O)[O-])=C(C[n+]3ccccc3)CS[C@H]12)c1csc(N)n1)C(=O)O [Ceftazidime, ceftazidime] | – | – | – | – | – | – | – | – | – | 256 (≈ 468 µM) | 256 (≈ 468 µM) | 256 (≈ 468 µM) | 256 (≈ 468 µM) | 256 (≈ 468 µM) | 256 (≈ 468 µM) | 256 (≈ 468 µM) | 256 (≈ 468 µM) | 256 (≈ 468 µM)
CNC(C)C1CCC(N)C(OC2C(N)CC(N)C(OC3OCC(C)(O)C(NC)C3O)C2O)O1 (stereo not drawn) [Gentamicin, gentamicin] | – | – | – | – | – | – | – | – | – | > 1020 | >1024 | >1024 | >1024 | >1024 | >1024 | >1024 | >1024 | >1024
CCN1CCN(C(=O)N[C@@H](C(=O)N[C@@H]2C(=O)N3[C@@H]2SC(C)(C)[C@@H]3C(=O)O)c2ccccc2)C(=O)C1=O [Piperacillin, piperacillin] | > 1020 | > 1020 | > 1020 | > 1020 | > 1020 | > 1020 | > 1020 | > 1020 | > 1020 | – | – | – | – | – | – | – | – | –

Second part, led by results:

MIC [1] [µg/mL] | MIC [2] [µg/mL] | MIC [3] [µg/mL] | MIC [4] [µg/mL] | MIC [5] [µg/mL] | MIC [6] [µg/mL] | MIC [7] [µg/mL] | MIC [8] [µg/mL] | MIC [9] [µg/mL] | SMILES | MIC (Acinetobacter baumannii) [µg/mL] | MIC [10] [µg/mL] | MIC [11] [µg/mL] | MIC [12] [µg/mL] | MIC [13] [µg/mL] | MIC [14] [µg/mL] | MIC [15] [µg/mL] | MIC [16] [µg/mL] | MIC [17] [µg/mL]
32 (≈ 99 µM) | 32 (≈ 99 µM) | 32 (≈ 99 µM) | 32 (≈ 99 µM) | 32 (≈ 99 µM) | 32 (≈ 99 µM) | 32 (≈ 99 µM) | 32 (≈ 99 µM) | 32 (≈ 99 µM) | O=C(N[C@H](CO)[C@H](O)c1ccc([N+](=O)[O-])cc1)C(Cl)Cl [Chloramphenicol, chloramphenicol] | – | – | – | – | – | – | – | – | –
64 (≈ 214 µM) | 64 (≈ 214 µM) | 64 (≈ 214 µM) | 64 (≈ 214 µM) | 64 (≈ 214 µM) | 64 (≈ 214 µM) | 64 (≈ 214 µM) | 64 (≈ 214 µM) | 64 (≈ 214 µM) | C[C@@H](O)[C@H]1C(=O)N2C(C(=O)O)=C(SCCN=CN)C[C@H]12 [Imipenem, imipenem] | – | – | – | – | – | – | – | – | –
16 (≈ 44.3 µM) | 16 (≈ 44.3 µM) | 16 (≈ 44.3 µM) | 8 (≈ 22.1 µM) | 8 (≈ 22.1 µM) | 16 (≈ 44.3 µM) | 8 (≈ 22.1 µM) | 16 (≈ 44.3 µM) | 16 (≈ 44.3 µM) | C[C@H]1COc2c(N3CCN(C)CC3)c(F)cc3c(=O)c(C(=O)O)cn1c23 [Levofloxacin, levofloxacin] | – | – | – | – | – | – | – | – | –
32 (≈ 83.4 µM) | 32 (≈ 83.4 µM) | 32 (≈ 83.4 µM) | 32 (≈ 83.4 µM) | 32 (≈ 83.4 µM) | 32 (≈ 83.4 µM) | 32 (≈ 83.4 µM) | 32 (≈ 83.4 µM) | 32 (≈ 83.4 µM) | C[C@@H](O)[C@H]1C(=O)N2C(C(=O)O)=C(S[C@@H]3CN[C@H](C(=O)N(C)C)C3)[C@H](C)[C@H]12 [Meropenem, meropenem] | – | – | – | – | – | – | – | – | –
16 (≈ 35 µM) | 16 (≈ 35 µM) | 16 (≈ 35 µM) | 16 (≈ 35 µM) | 16 (≈ 35 µM) | 16 (≈ 35 µM) | 16 (≈ 35 µM) | 16 (≈ 35 µM) | 16 (≈ 35 µM) | CN(C)c1ccc(O)c2c1C[C@H]1C[C@H]3[C@H](N(C)C)C(O)=C(C(N)=O)C(=O)[C@@]3(O)C(O)=C1C2=O [Minocycline, minocycline] | – | – | – | – | – | – | – | – | –
